Data taken from patent publication US9187450B2, “Substituted pyridine compound” (Daiichi Sankyo Company, Limited, priority 2010, dated 2015).

molecular target: recombinant human CETP protein (Homo sapiens (Human), UniProt P11597); assay: Test of CETP inhibition activity (in vitro, buffer-based); type: biochemical; conditions: reconstituted HDL with [14C]-labeled cholesteryl ester, acceptor lipoprotein, 37° C.
Description: Test of CETP Inhibition Activity (In Vitro, Buffer-Based)
(1) Preparation of Reconstituted HDL
Cholesterol (1.125 μmol), phosphatidyl choline (4.5 μmol) and [^14C]-labeled cholesteryl ester (2.0 μCi; 40 μl) were taken in a glass test tube and well mixed with a vortex, and dried under a nitrogen gas current so that it formed a thin film. The obtained mixture was dissolved in ethanol (200 μl), which was designated as Solution A. A PBS solution [a mixed solution of Na2HPO4 (30 mM), KH2PO4 (8.8 mM), NaCl (60 mM) and EDTA (pH 7.4; 0.67 mM); 4 ml] was taken in a tube and the reaction solution was vigorously stirred with a vortex under a nitrogen current. The above-described Solution A was gently injected into this mixture with a syringe and the reaction solution was vigorously stirred with a vortex for 5 minutes under a nitrogen current. Sodium cholate ([…]; 0.38 ml) was added to the obtained mixture and the reaction solution was stirred for 2 minutes. ApoA-I protein (3 mg) was added to the obtained mixture and the reaction solution was stirred for 2 minutes. The obtained mixture was adjusted to 5 ml with the PBS solution and then dialyzed with the PBS solution. The obtained mixture was designated as the reconstituted HDL.
(2) Preparation of Acceptor Lipoprotein
NaBr was added to the plasma of a healthy person and the density of the mixture was adjusted to 1.019, and the mixture was subjected to density gradient centrifugation (40000 rpm, for 16 hours) to remove the fraction having a density of less than 1.019. NaBr was added to the obtained mixture and the density of the solution was adjusted to 1.063, and the solution was subjected to density gradient centrifugation (40000 rpm, 18 hours) to provide the fraction consisting of IDL (intermediate density lipoprotein) and LDL (1.019<density<1.063). The obtained fraction was dialyzed with the PBS solution. The obtained mixture was designated as the acceptor lipoprotein.
(3) Measurement of CETP Inhibition Activity
A recombinant human CETP protein (manufactured by Roar Biomedical Inc.; 4.5 ng), the acceptor lipoprotein described in (2) above (32.5 μg) and 5,5′-dithio-bis-(2-nitrobenzoic acid) (7 mM, 15 μl) were taken in a 96 well plate and the total amount of the mixture was adjusted to 48.5 μl with the PBS solution. The test compound [DMSO solution (concentration: 0.15, 0.5, 1.5, 5, 15, 50, 150 and 500 μM; 1.5 μl] was added to each well and the mixture was incubated in a thermostatic bath at 37° C. for 60 minutes. The reconstituted HDL (50 μl) described in (1) above was added to each well and the mixture was reacted in a thermostatic bath at 37° C. for 60 minutes. The 96 well plate was moved onto ice and a precipitation reagent [a mixed solution of magnesium chloride (60 mM) and 0.1% dextran sulfate [1/1 (v/v)]; 15 μl] was added to each well, and then the mixture was allowed to stand on ice for 15 minutes. The reaction solution (80 μl) in each well was moved to a filter plate and centrifuged at 1500 rpm for 1 minute, and the filtrate which passed through the filter was designated as the HDL fraction and the radioactivity thereof was measured with a scintillation counter. The percentage decrease in radioactivity in the case where the test compound was added in comparison with that in case where the test compound was not added was designated as the percentage CETP inhibition. The IC50 value was calculated from the percentage CETP inhibition.

Chain of recombinant human CETP protein (P11597 18-493): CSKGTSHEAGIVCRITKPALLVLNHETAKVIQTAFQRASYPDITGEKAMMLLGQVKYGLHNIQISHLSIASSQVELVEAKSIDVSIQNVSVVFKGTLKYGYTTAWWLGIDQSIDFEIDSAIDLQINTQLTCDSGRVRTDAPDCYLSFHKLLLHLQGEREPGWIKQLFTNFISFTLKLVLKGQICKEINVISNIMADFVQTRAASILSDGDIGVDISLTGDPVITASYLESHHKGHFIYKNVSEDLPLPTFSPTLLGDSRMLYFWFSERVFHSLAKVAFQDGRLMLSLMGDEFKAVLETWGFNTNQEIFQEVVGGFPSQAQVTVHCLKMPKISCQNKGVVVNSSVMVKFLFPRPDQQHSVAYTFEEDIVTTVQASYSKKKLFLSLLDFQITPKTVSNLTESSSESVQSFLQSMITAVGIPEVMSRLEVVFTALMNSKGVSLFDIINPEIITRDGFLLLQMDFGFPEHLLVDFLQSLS

IC50 | SMILES
54 nM | CC(C)Cc1cnc(N2CCC(c3nc4c(c(C5CCC(F)(F)CC5)c3[C@@H](F)c3ccc(C(F)(F)F)cc3)[C@@H](O)CC(C)(C)C4)CC2)nc1 (single isomer, unassigned) [Example 24, (−)-4-(4,4-Difluorocyclohexyl)-3-{fluoro[4-(trifluoromethyl)phenyl]methyl}-7,7-dimethyl-2-{1-[5-(2-methylpropyl)pyrimidin-2-yl]piperidin-4-yl}-5,6,7,8-tetrahydroquinolin-5-ol]
19 nM | CC1(C)Cc2nc(C3CCN(c4ncc(CCCCC(=O)O)cn4)CC3)c([C@@H](F)c3ccc(C(F)(F)F)cc3)c(C3CCC(F)(F)CC3)c2[C@@H](O)C1 (single isomer, unassigned) [Example 25, (−)-2-{1-[5-(4-carboxybutyl)pyrimidine-2-yl]piperidin-4-yl}-4-(4,4-difluorocyclohexyl)-3-{fluoro[4-(trifluoromethyl)phenyl]methyl}-7,7-dimethyl-5,6,7,8-tetrahydroquinoline-5-ol]
45 nM | CCOCc1cnc(N2CCC(c3nc4c(c(C5CCC(F)(F)CC5)c3[C@@H](F)c3ccc(C(F)(F)F)cc3)[C@@H](O)CC(C)(C)C4)CC2)nc1 (single isomer, unassigned) [Example 26, (−)-4-(4,4-Difluorocyclohexyl)-2-{1-[5-(ethoxymethyl)pyrimidin-2-yl]piperidin-4-yl}-3-{fluoro[4-(trifluoromethyl)phenyl]methyl}-7,7-dimethyl-5,6,7,8-tetrahydroquinolin-5-ol]
40 nM | COCc1cnc(N2CCC(c3nc4c(c(C5CCC(F)(F)CC5)c3[C@@H](F)c3ccc(C(F)(F)F)cc3)[C@@H](O)CC(C)(C)C4)CC2)nc1 (single isomer, unassigned) [Example 27, (−)-4-(4,4-Difluorocyclohexyl)-3-{fluoro[4-(trifluoromethyl)phenyl]methyl}-2-{1-[5-(methoxymethyl)pyrimidin-2-yl]piperidin-4-yl}-7,7-dimethyl-5,6,7,8-tetrahydroquinolin-5-ol]
78 nM | CC(C)OCc1cnc(N2CCC(c3nc4c(c(C5CCC(F)(F)CC5)c3[C@@H](F)c3ccc(C(F)(F)F)cc3)[C@@H](O)CC(C)(C)C4)CC2)nc1 (single isomer, unassigned) [Example 28, (−)-4-(4,4-difluorocyclohexyl)-3-{fluoro[4-(trifluoromethyl)phenyl]methyl}-7,7-dimethyl-2-(1-{5-[(propan-2-yloxy)methyl]pyrimidine-2-yl}piperidin-4-yl)-5,6,7,8-tetrahydroquinoline-5-ol]
62 nM | CC(C)COCc1cnc(N2CCC(c3nc4c(c(C5CCC(F)(F)CC5)c3[C@@H](F)c3ccc(C(F)(F)F)cc3)[C@@H](O)CC(C)(C)C4)CC2)nc1 (single isomer, unassigned) [Example 29, (−)-4-(4,4-Difluorocyclohexyl)-3-{fluoro[4-(trifluoromethyl)phenyl]methyl}-7,7-dimethyl-2-(1-{5-[(2-methylpropoxy)methyl]pyrimidin-2-yl}piperidin-4-yl)-5,6,7,8-tetrahydroquinolin-5-ol]
32 nM | CNC(=O)c1cnc(N2CCC(c3nc4c(c(C5CCC(F)(F)CC5)c3[C@@H](F)c3ccc(C(F)(F)F)cc3)[C@@H](O)CC(C)(C)C4)CC2)nc1 (single isomer, unassigned) [Example 30, 4-(4,4-Difluorocyclohexyl)-3-{fluoro[4-(trifluoromethyl)phenyl]methyl}-7,7-dimethyl-2-{1-[5-(methylcarbamoyl)pyrimidin-2-yl]piperidin-4-yl}-5,6,7,8-tetrahydroquinolin-5-ol]
29 nM | CN(C)C(=O)c1cnc(N2CCC(c3nc4c(c(C5CCC(F)(F)CC5)c3[C@@H](F)c3ccc(C(F)(F)F)cc3)[C@@H](O)CC(C)(C)C4)CC2)nc1 (single isomer, unassigned) [Example 31, (−)-4-(4,4-Difluorocyclohexyl)-2-{1-[5-(dimethylcarbamoyl)pyrimidin-2-yl]piperidin-4-yl}-3-{fluoro[4-(trifluoromethyl)phenyl]methyl}-7,7-dimethyl-5,6,7,8-tetrahydroquinolin-5-ol]
19 nM | CC1(C)Cc2nc(C3CCN(c4ncc(C(=O)N5CCOCC5)cn4)CC3)c([C@@H](F)c3ccc(C(F)(F)F)cc3)c(C3CCC(F)(F)CC3)c2[C@@H](O)C1 (single isomer, unassigned) [Example 32, 4-(4,4-Difluorocyclohexyl)-3-{fluoro[4-(trifluoromethyl)phenyl]methyl}-7,7-dimethyl-2-{1-[5-(morpholin-4-yl-carbonyl)pyrimidin-2-yl]piperidin-4-yl}-5,6,7,8-tetrahydroquinolin-5-ol]
48 nM | CC1(C)Cc2nc(C3CCN(c4ncc(CCCC(F)(F)F)cn4)CC3)c([C@@H](F)c3ccc(C(F)(F)F)cc3)c(C3CCC(F)(F)CC3)c2[C@@H](O)C1 (single isomer, unassigned) [Example 33, 4-(4,4-Difluorocyclohexyl)-3-{fluoro[4-(trifluoromethyl)phenyl]methyl}-7,7-dimethyl-2-{1-[5-(4,4,4-trifluorobutyl)pyrimidin-2-yl]piperidin-4-yl}-5,6,7,8-tetrahydroquinolin-5-ol]
54 nM | CC(C)/C=C/c1cnc(N2CCC(c3nc4c(c(C5CCC(F)(F)CC5)c3[C@@H](F)c3ccc(C(F)(F)F)cc3)[C@@H](O)CC(C)(C)C4)CC2)nc1 (single isomer, unassigned) [Example 34, (−)-4-(4,4-Difluorocyclohexyl)-3-{fluoro[4-(trifluoromethyl)phenyl]methyl}-7,7-dimethyl-2-(1-{5-[(1E)-3-methylbut-1-ene-1-yl]pyrimidin-2-yl}piperidin-4-yl)-5,6,7,8-tetrahydroquinolin-5-ol]
88 nM | Cc1noc(-c2cnc(N3CCC(c4nc5c(c(C6CCC(F)(F)CC6)c4[C@@H](F)c4ccc(C(F)(F)F)cc4)[C@@H](O)CC(C)(C)C5)CC3)nc2)n1 (single isomer, unassigned) [Example 35, 4-(4,4-Difluorocyclohexyl)-3-{fluoro[4-(trifluoromethyl)phenyl]methyl}-7,7-dimethyl-2-{1-[5-(3-methyl-1,2,4-oxadiazol-5-yl)pyrimidin-2-yl]piperidin-4-yl}-5,6,7,8-tetrahydroquinolin-5-ol]

SMILES | IC50
CC(C)CCOc1cnc(N2CCC(c3nc4c(c(C5CCC(F)(F)CC5)c3[C@@H](F)c3ccc(C(F)(F)F)cc3)[C@@H](O)CC(C)(C)C4)CC2)nc1 (single isomer, unassigned) [Example 22, (−)-4-(4,4-difluorocyclohexyl)-3-{fluoro[4-(trifluoromethyl)phenyl]methyl}-7,7-dimethyl-2-{1-[5-(3-methylbutoxyl)pyrimidine-2-yl]piperidin-4-yl}-5,6,7,8-tetrahydroquinoline-5-ol] | 111 nM
CC1(C)Cc2nc(C3CCN(c4ncc(OCCCCC(=O)O)cn4)CC3)c([C@@H](F)c3ccc(C(F)(F)F)cc3)c(C3CCC(F)(F)CC3)c2[C@@H](O)C1 (single isomer, unassigned) [Example 23, (−)-2-{1-[5-(4-Carboxybutoxyl)pyrimidin-2-yl]piperidin-4-yl}-4-(4,4-difluorocyclohexyl)-3-{fluoro[4-(trifluoromethyl)phenyl]methyl}-7,7-dimethyl-5,6,7,8-tetrahydroquinolin-5-ol] | 37 nM
